The experiment has as its target T1, Phosphatidylinositol 4,5-bisphosphate 3-kinase catalytic subunit delta isoform (Homo sapiens, UniProt O00329).
T1 sequence (O00329 whole entry): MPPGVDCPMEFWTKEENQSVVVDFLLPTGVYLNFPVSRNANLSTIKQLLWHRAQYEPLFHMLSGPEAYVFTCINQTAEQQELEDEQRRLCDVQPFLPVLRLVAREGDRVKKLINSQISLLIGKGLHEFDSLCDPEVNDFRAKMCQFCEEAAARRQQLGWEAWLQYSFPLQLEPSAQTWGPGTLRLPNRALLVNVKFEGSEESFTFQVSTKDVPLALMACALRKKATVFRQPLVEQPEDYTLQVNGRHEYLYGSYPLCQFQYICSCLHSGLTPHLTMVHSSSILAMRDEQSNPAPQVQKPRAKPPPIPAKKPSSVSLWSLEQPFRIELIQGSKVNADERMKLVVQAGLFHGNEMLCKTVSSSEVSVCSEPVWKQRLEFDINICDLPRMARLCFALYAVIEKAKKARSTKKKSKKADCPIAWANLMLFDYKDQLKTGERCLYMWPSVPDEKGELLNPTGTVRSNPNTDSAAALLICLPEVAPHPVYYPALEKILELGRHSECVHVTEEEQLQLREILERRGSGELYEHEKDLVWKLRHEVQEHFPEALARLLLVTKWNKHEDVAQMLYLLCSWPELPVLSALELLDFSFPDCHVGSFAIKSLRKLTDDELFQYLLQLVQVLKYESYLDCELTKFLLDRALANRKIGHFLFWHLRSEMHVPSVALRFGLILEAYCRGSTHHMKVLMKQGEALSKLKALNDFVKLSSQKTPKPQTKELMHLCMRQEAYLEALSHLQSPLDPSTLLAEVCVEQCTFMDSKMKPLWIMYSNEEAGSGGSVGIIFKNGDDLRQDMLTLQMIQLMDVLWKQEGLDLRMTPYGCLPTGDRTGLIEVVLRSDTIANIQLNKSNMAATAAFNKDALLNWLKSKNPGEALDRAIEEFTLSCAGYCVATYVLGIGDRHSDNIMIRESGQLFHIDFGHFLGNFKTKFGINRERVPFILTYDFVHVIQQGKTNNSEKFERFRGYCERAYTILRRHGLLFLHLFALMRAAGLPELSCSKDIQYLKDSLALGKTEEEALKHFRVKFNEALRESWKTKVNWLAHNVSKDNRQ
Briefly: [PIP2] was used at its Km.

The IC50 is the concentration that gives 50% inhibition. The low end stands for greater potency in that assay, the high end for weaker potency in that assay.

`C[C@H](Nc1ncnc(N)c1C#N)c1nn2ccc(Sc3ccc(O)c(F)c3)c2c(=O)n1-c1ccccc1` yielded an IC50 of 2 nM.
The same measure for `COc1ncc(-c2c(N)ncnc2N[C@@H](C)c2nn3ccc(C)c3c(=O)n2-c2ccccc2)cc1NS(=O)(=O)C(F)(F)F`: 1 nM; for `Cc1ccn2nc([C@H](C)Nc3ncnc(N)c3C(=O)Nc3cccc(O)c3)n(-c3ccccc3)c(=O)c12`: 3 nM.
For `COc1ccc(S(=O)(=O)n2ncc3ccc(-c4c(N)ncnc4N[C@@H](C)c4nn5ccc(C)c5c(=O)n4-c4ccccc4)cc32)cc1`, the IC50 came to 0.4 nM.
The value for `Cc1ccn2nc([C@H](C)Nc3ncnc(N)c3C(=O)Nc3cc(C(N)=O)ccc3O)n(-c3ccccc3)c(=O)c12` was 3 nM; that for `COc1ncc(-c2c(N)ncnc2N[C@@H](C)c2nn3ccc(Br)c3c(=O)n2-c2ccccc2)cc1NS(C)(=O)=O` was 25 nM.

The values are drawn from ChEMBL document CHEMBL3886805, “Pyrrolotriazinone derivatives as PI3K inhibitors” (2016).
